In paper PMC6270420, “Antibacterial Activity of Salicylanilide 4-(Trifluoromethyl)benzoates” (Molecules, 2013):
Values after ≈ are worked out from the molar mass of the structure shown. Like-named read-outs stand apart in the source and are kept apart here.

Assays:
[1] = system: Mycobacterium tuberculosis 331/88 (H37Rv); assay: Antimycobacterial MIC micromethod, Šula's medium; format: cell-based
[2] = system: Mycobacterium avium 330/88; assay: Antimycobacterial MIC micromethod; format: cell-based
[3] = system: Mycobacterium kansasii 235/80; assay: Antimycobacterial MIC micromethod; format: cell-based; details: read-out: MIC M. kansasii 235/80
[4] = system: M. kansasii 6509/96 (clinically isolated strain); assay: Antimycobacterial MIC micromethod; format: cell-based; details: Mycobacterium kansasii, read-out: MIC M. kansasii 6509/96
[5] = target: T1, mycobacterial isocitrate lyase (ICL1, Rv0467) (Mycobacterium tuberculosis, UniProt P9WKK7); assay: Isocitrate lyase inhibition assay (ICL1); format: biochemical, Mycobacterium tuberculosis H37Rv; details: 10 μmol/L; read-out: % ICL inhibition at 10 μmol/L (± standard deviation)
T1 construct: His tag (from pET-28b(+)); made in house; host or cells: E. coli BL21(DE3), pET-28b(+) plasmid
T1 sequence (P9WKK7 1-428): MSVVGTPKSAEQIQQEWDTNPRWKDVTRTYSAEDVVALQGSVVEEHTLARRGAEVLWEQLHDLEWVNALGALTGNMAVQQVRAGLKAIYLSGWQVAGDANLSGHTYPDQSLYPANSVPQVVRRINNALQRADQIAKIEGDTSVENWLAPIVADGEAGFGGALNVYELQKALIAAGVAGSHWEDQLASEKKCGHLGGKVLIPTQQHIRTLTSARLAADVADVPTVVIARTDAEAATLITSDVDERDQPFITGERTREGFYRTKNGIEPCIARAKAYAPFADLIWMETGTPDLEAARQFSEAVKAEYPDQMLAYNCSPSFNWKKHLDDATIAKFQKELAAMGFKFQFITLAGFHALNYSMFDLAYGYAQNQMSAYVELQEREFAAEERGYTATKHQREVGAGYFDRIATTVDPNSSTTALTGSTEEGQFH

[6] = system: Enterococcus sp. J 14365/08; assay: Antibacterial microdilution broth method; format: cell-based; details: read-out: MIC/IC90 Enterococcus sp. J 14365/08
Protocol: (§1) The in vitro antibacterial activity was assayed against eight Gram-positive and Gram-negative strains: Staphylococcus aureus CCM 4516/08, methicillin-resistant Staphylococcus aureus H 5996/08 (MRSA), Staphylococcus epidermidis H 6966/08, Enterococcus sp. J 14365/08; Escherichia coli CCM 4517, Klebsiella pneumoniae D 11750/08, ESBL-positive Klebsiella pneumoniae J 14368/08, and Pseudomonas aeruginosa CCM 1961.
(§2) The microdilution broth method modified according to standard M07-A07 in Mueller-Hinton broth (HiMedia Laboratories, Mumbai, India) adjusted to pH 7.4 (±0.2) was used. The tested compounds were dissolved in DMSO to the final concentrations ranging from […]. Benzylpenicillin (penicillin G) was used as a comparative drug. Bacterial inoculum in sterile water was prepared to match 0.5 McFarland scale ([…]). The minimum inhibitory concentrations were assayed as 90% (IC90) or higher reduction of growth when compared to the control. The determination of results was performed visually and spectrophotometrically (at 540 nm). The values of MICs were determined after 24 and 48 h of incubation in the darkness at 35 °C (±0.1) in a humid atmosphere.

[7] = system: Escherichia coli CCM 4517; assay: Antibacterial microdilution broth method; format: cell-based; details: read-out: MIC/IC90 E. coli CCM 4517
Protocol: as §1, §2

[8] = system: Staphylococcus aureus CCM 4516/08; assay: Antibacterial microdilution broth method; format: cell-based; details: read-out: MIC/IC90 S. aureus CCM 4516/08
Protocol: as §1, §2

[9] = system: Staphylococcus epidermidis H 6966/08; assay: Antibacterial microdilution broth method; format: cell-based; details: read-out: MIC/IC90 S. epidermidis H 6966/08
Protocol: as §1, §2

[10] = system: methicillin-resistant Staphylococcus aureus H 5996/08 (MRSA); assay: Antibacterial microdilution broth method; format: cell-based; details: read-out: MIC/IC90 MRSA H 5996/08
Protocol: as §1, §2

[11] = 336 h, 14 d, read-out: MIC Mtb. 331/88
[12] = 504 h, 21 d, read-out: MIC Mtb. 331/88

`O=C(Oc1cc(Cl)ccc1C(=O)Nc1ccc(F)cc1)c1ccc(C(F)(F)F)cc1` [1n] showed an MIC [1, 11] of 4 µM (≈ 1.75 µg/mL), an MIC [1, 12] of 8 µM (≈ 3.5 µg/mL) and an MIC ([2]; 330/88, 336 h, 14 d) of 4 µM (≈ 1.75 µg/mL). The MIC ([2]; 330/88, 504 h, 21 d) was 4 µM (≈ 1.75 µg/mL), the MIC ([3]; 235/80, 168 h, 7 d) was 2 µM (≈ 0.876 µg/mL) and the MIC ([3]; 235/80, 336 h, 14 d) was 8 µM (≈ 3.5 µg/mL). It also gave an MIC ([3]; 235/80, 504 h, 21 d) of 8 µM (≈ 3.5 µg/mL), an MIC ([4]; 168 h, 7 d) of 4 µM (≈ 1.75 µg/mL) and an MIC ([4]; 336 h, 14 d) of 8 µM (≈ 3.5 µg/mL). It also gave an MIC ([4]; 504 h, 21 d) of 8 µM (≈ 3.5 µg/mL) and an inhibition at 10 µM [5] of 17 ± 1.3%.
Work on `O=C(Oc1ccc(Cl)cc1C(=O)Nc1cccc(C(F)(F)F)c1)c1ccc(C(F)(F)F)cc1` [1q] yielded an MIC [1, 11] of 2 µM (≈ 0.976 µg/mL), an MIC [1, 12] of 2 µM (≈ 0.976 µg/mL) and an MIC ([2]; 330/88, 336 h, 14 d) of 4 µM (≈ 1.95 µg/mL). It also gave an MIC ([2]; 330/88, 504 h, 21 d) of 16 µM (≈ 7.8 µg/mL), an MIC ([3]; 235/80, 168 h, 7 d) of 2 µM (≈ 0.976 µg/mL) and an MIC ([3]; 235/80, 336 h, 14 d) of 4 µM (≈ 1.95 µg/mL). It also gave an MIC ([3]; 235/80, 504 h, 21 d) of 8 µM (≈ 3.9 µg/mL), an MIC ([4]; 168 h, 7 d) of 1 µM (≈ 0.488 µg/mL) and an MIC ([4]; 336 h, 14 d) of 4 µM (≈ 1.95 µg/mL). The MIC ([4]; 504 h, 21 d) was 8 µM (≈ 3.9 µg/mL) and the inhibition at 10 µM [5] was 19 ± 0.5%.
For `O=C(O)CC[N+](=O)[O-]` [3-NP, 3-nitropropionic acid, reference compound], the inhibition at 10 µM [5] was 25 ± 4.1%.
For `NNC(=O)c1ccncc1` [INH, isoniazid, reference compound], the MIC [1, 11] was 0.5 to 1 µM (≈ 0.0686 to 0.137 µg/mL), the MIC [1, 12] was 0.5 to 1 µM (≈ 0.0686 to 0.137 µg/mL) and the MIC ([1]; time not stated, read-out: MIC against M. tuberculosis) was 1 µM (≈ 0.137 µg/mL). The MIC ([2]; 330/88, 336 h, 14 d) was no less than 250 µM, the MIC ([2]; 330/88, 504 h, 21 d) was no less than 250 µM and the MIC ([3]; 235/80, 168 h) was greater than 250 µM. It also gave an MIC ([3]; 235/80, 336 h) greater than 250 µM, an MIC ([3]; 235/80, 504 h) greater than 250 µM and an MIC ([4]; 168 h) of 2 to 4 µM (≈ 0.274 to 0.549 µg/mL). It also gave an MIC ([4]; 336 h) of 4 to 8 µM (≈ 0.549 to 1.1 µg/mL), an MIC ([4]; 504 h) of 8 to 16 µM (≈ 1.1 to 2.19 µg/mL) and an inhibition at 10 µM [5] of 0%.
`Nc1ccc(C(=O)O)c(O)c1` [PAS, p-aminosalicylic acid, reference compound] showed an MIC [1, 11] of 62.5 µM (≈ 9.57 µg/mL), an MIC [1, 12] of 62.5 µM (≈ 9.57 µg/mL) and an MIC ([2]; 330/88, 336 h, 14 d) of 32 µM (≈ 4.9 µg/mL). It also gave an MIC ([2]; 330/88, 504 h, 21 d) of 125 µM (≈ 19.1 µg/mL), an MIC ([3]; 235/80, 168 h) of 125 µM (≈ 19.1 µg/mL) and an MIC ([3]; 235/80, 336 h) of 1000 µM (≈ 153 µg/mL). It also gave an MIC ([3]; 235/80, 504 h) greater than 1000 µM, an MIC ([4]; 168 h) of 32 µM (≈ 4.9 µg/mL) and an MIC ([4]; 336 h) of 125 µM (≈ 19.1 µg/mL). It also gave an MIC ([4]; 504 h) of 500 µM (≈ 76.6 µg/mL).
`CC1(C)S[C@@H]2[C@H](NC(=O)Cc3ccccc3)C(=O)N2[C@H]1C(=O)O` [PNC, benzylpenicillin, reference compound] gave an MIC ([6]; SP.J14365/08, 24 h) of 7.81 µM (≈ 2.61 µg/mL), an MIC ([6]; SP.J14365/08, 48 h) of 15.6 µM (≈ 5.22 µg/mL) and an MIC ([7]; CCM4517, 24 h) greater than 500 µM. It also gave an MIC ([7]; CCM4517, 48 h) greater than 500 µM, an MIC ([8]; CCM4516, 24 h) of 0.98 µM (≈ 0.328 µg/mL) and an MIC ([8]; CCM4516, 48 h) of 0.98 µM (≈ 0.328 µg/mL). The MIC ([9]; H6966/08, 24 h) was 250 µM (≈ 83.6 µg/mL), the MIC ([9]; H6966/08, 48 h) was 250 µM (≈ 83.6 µg/mL) and the MIC ([10]; 24 h) was 62.5 µM (≈ 20.9 µg/mL). For the same molecule, the MIC ([10]; 48 h) was 125 µM (≈ 41.8 µg/mL).
